The target of the assay is CDK12 (Homo sapiens, UniProt Q9NYV4). Description: Biochemical assay for CDK12 (LANCE TR-FRET, IC50 determination). Particulars: for IC50: CDK12, IC50 class; for inhibition at 10 µM: read-out: CDK12 % Inhibition @ 10 μM. An outline of the steps: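 30 nM CDK12 phosphorylated 100 nM ULight-4E-BP1 (Thr37/Thr46) peptide at 100 µM ATP, as printed, in HEPES pH 7.5 buffer with MgCl2 and DTT. Compound and enzyme were preincubated 60 min, then reacted 60 min at room temperature before stopping with EDTA and Eu anti-phospho antibody. TR-FRET 665/615 ratio gave sigmoidal IC50 fits.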
CDK12, sequence (Q9NYV4 whole entry): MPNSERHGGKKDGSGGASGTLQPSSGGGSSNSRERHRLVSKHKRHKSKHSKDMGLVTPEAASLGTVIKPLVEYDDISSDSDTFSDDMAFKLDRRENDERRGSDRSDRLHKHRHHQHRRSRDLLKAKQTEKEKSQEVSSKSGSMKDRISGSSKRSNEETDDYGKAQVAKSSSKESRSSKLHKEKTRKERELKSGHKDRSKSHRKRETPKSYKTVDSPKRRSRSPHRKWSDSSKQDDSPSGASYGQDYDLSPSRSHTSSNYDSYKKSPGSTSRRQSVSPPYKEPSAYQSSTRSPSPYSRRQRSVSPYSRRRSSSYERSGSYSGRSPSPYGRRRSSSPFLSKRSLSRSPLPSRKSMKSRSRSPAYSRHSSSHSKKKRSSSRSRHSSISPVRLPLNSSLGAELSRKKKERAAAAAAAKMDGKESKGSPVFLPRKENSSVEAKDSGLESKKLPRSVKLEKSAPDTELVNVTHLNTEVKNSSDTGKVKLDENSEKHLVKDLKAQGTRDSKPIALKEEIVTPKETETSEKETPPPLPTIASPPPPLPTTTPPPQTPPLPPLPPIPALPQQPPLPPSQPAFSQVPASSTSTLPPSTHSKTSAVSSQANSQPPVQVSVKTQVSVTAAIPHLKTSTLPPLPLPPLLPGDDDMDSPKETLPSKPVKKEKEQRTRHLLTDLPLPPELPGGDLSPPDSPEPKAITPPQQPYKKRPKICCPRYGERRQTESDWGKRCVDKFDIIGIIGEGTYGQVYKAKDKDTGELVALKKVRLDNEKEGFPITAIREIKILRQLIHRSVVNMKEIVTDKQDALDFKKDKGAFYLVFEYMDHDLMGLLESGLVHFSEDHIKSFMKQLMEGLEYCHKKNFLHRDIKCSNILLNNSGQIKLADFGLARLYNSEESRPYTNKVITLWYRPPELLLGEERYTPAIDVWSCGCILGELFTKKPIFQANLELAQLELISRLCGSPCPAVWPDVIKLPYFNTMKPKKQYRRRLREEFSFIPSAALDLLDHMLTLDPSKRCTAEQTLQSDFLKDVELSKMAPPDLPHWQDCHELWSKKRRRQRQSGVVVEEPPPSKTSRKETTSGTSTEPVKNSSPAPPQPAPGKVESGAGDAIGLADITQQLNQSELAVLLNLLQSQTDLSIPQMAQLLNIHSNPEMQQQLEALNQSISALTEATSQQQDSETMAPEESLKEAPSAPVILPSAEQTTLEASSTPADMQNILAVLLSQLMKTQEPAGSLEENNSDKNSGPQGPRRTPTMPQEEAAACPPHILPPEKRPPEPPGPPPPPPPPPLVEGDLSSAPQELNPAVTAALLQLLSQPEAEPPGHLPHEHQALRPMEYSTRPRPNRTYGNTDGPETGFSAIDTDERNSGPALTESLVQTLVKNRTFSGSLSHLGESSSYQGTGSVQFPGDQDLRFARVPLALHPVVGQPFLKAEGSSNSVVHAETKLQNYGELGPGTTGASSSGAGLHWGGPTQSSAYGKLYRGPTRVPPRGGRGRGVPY
CDK12, sequence (O75909 whole entry partner): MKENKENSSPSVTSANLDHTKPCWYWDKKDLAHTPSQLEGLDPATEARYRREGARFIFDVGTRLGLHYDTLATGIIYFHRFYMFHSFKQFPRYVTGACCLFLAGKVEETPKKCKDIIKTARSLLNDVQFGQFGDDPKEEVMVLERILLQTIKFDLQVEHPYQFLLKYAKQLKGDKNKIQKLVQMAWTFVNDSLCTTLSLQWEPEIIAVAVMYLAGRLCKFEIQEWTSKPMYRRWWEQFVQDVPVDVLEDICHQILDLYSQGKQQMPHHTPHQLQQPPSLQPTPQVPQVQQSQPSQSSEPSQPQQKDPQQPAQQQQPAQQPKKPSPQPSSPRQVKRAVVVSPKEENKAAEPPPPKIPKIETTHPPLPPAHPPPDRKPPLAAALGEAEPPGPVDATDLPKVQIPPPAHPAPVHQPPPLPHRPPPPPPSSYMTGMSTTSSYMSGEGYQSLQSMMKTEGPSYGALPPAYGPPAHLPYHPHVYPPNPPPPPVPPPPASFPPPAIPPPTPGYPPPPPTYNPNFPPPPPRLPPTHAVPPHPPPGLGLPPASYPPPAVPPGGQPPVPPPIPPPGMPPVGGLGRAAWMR
A general note: In TR-FRET formats the signal depends on donor and acceptor labels being close together.

Where two headings read alike, the source gives them in different places. Where only a bound is given, the exact number is not on record here.

In general, IC50 refers to the point on the concentration scale where inhibition reaches its midpoint. As a reminder, the inhibition is the change of the read-out against control, counted positive when it falls. In the case of `CN1CCC[C@@H](Oc2cc(NC(=O)Cc3ccc(C4=CCCN(C#N)C4)nc3)ncc2Cl)C1` [Compound 46, (R)-N-(5-chloro-4-((1-methylpiperidin-3-yl)oxy)pyridin-2-yl)-2-(1′-cyano-1′,2′,5′,6′-tetrahydro-[2,3′-bipyridin]-5-yl)acetamide], the 50% inhibitory concentration (IC50) (read-out: IC50 μM (in range)) was less than 0.01 µM. In addition, the inhibition at 10 µM (compound at 10 μM) came out at 88%.
With `CN1CCC[C@H](Oc2cc(NC(=O)Cc3ccc(C4=CCCN(C#N)C4)nc3)ncc2Cl)C1` [Compound 47, (S)-N-(5-chloro-4-((1-methylpiperidin-3-yl)oxy)pyridin-2-yl)-2-(1′-cyano-1′,2′,5′,6′-tetrahydro-[2,3′-bipyridin]-5-yl)acetamide], the IC50 (read-out: IC50 μM (in range)) lay in the range of 0.01 to 0.1 µM. Moreover, the inhibition at 10 µM (compound at 10 μM) came out at 85%.
Turning to `COc1cc(NC(=O)C(C)c2ccc(C3=CCCN(C#N)C3)nc2)ncc1Cl` (stereo not drawn) [Compound 48, N-(5-chloro-4-methoxypyridin-2-yl)-2-(1′-cyano-1′,2′,5′,6′-tetrahydro-[2,3′-bipyridin]-5-yl)propanamide], the IC50 (read-out: IC50 μM (in range)) was less than 0.01 µM. The inhibition at 10 µM (compound at 10 μM) amounted to 90%.
The matching figures for `COc1cc(NC(=O)C(C)c2ccc(C3=CCN(C#N)CC3)nc2)ncc1Cl` (stereo not drawn) [Compound 51, N-(5-chloro-4-methoxypyridin-2-yl)-2-(1′-cyano-1′,2′,3′,6′-tetrahydro-[2,4′-bipyridin]-5-yl)propanamide]: less than 0.01 µM and 102%.
For the molecule `CN1CCCC1COc1cc(NC(=O)Cc2ccc(C3=CCN(C#N)CC3)nc2)ncc1Cl` (stereo not drawn) [Compound 54, N-(5-chloro-4-((1-methylpyrrolidin-2-yl)methoxy)pyridin-2-yl)-2-(1′-cyano-1′,2′,3′,6′-tetrahydro-[2,4′-bipyridin]-5-yl)acetamide], the IC50 (read-out: IC50 μM (in range)) is more than 0.1 µM. The inhibition at 10 µM (compound at 10 μM) was determined as 77%.
As to `CN1CCCC1COc1cc(NC(=O)Cc2ccc(C3=CCCN(C#N)C3)nc2)ncc1Cl` (stereo not drawn) [Compound 55, N-(5-chloro-4-((1-methylpyrrolidin-2-yl)methoxy)pyridin-2-yl)-2-(1′-cyano-1′,2′,5′,6′-tetrahydro-[2,3′-bipyridin]-5-yl)acetamide], the IC50 (read-out: IC50 μM (in range)) was more than 0.1 µM. Also, the inhibition at 10 µM (compound at 10 μM) turned out to be 86%.
On to `CNC(=O)C(C)Oc1cc(NC(=O)Cc2ccc(C3=CCCN(C#N)C3)nc2)ncc1Cl` (stereo not drawn) [Compound 56, 2-((5-chloro-2-(2-(1′-cyano-1′,2′,5′,6′-tetrahydro-[2,3′-bipyridin]-5-yl)acetamido)pyridin-4-yl)oxy)-N-methylpropanamide], for which the IC50 (read-out: IC50 μM (in range)) is less than 0.01 µM. The inhibition at 10 µM (compound at 10 μM) is 100%.
The corresponding values for `COc1cc(NC(=O)Cc2ccc(C3CCN(C#N)CC3)nc2)ncc1Cl` [Compound 59, N-(5-chloro-4-methoxypyridin-2-yl)-2-(6-(1-cyanopiperidin-4-yl)pyridin-3-yl)acetamide] are less than 0.01 µM and 89%.
The corresponding values for `COc1cc(NC(=O)Cc2ccc(C3CCN(C#N)CC3C)nc2)ncc1Cl` (stereo not drawn) [Compound 60, N-(5-chloro-4-methoxypyridin-2-yl)-2-(6-(1-cyano-3-methylpiperidin-4-yl)pyridin-3-yl)acetamide] are 0.01 to 0.1 µM and 87%.
The corresponding values for `N#CN1CCC=C(c2ccc(CC(=O)Nc3cc(OC4CCOCC4)c(Cl)cn3)cn2)C1` [Compound 61, N-(5-chloro-4-((tetrahydro-2H-pyran-4-yl)oxy)pyridin-2-yl)-2-(1′-cyano-1′,2′,5′,6′-tetrahydro-[2,3′-bipyridin]-5-yl)acetamide] are less than 0.01 µM and 89%.
Take `CN1C2CCC1CC(Oc1cc(NC(=O)Cc3ccc(C4=CCCN(C#N)C4)nc3)ncc1Cl)C2` (stereo not drawn) [Compound 62, N-(5-chloro-4-((8-methyl-8-azabicyclo[3.2.1]octan-3-yl)oxy)pyridin-2-yl)-2-(1′-cyano-1′,2′,5′,6′-tetrahydro-[2,3′-bipyridin]-5-yl)acetamide]: the IC50 (read-out: IC50 μM (in range)) was less than 0.01 µM. Besides, the inhibition at 10 µM (compound at 10 μM) is 96%.
The matching figures for `CC1CC(Oc2cc(NC(=O)Cc3ccc(C4=CCCN(C#N)C4)nc3)ncc2Cl)CCN1C` (stereo not drawn) [Compound 63, N-(5-chloro-4-((1,2-dimethylpiperidin-4-yl)oxy)pyridin-2-yl)-2-(1′-cyano-1′,2′,5′,6′-tetrahydro-[2,3′-bipyridin]-5-yl)acetamide]: less than 0.01 µM and 92%.
As to `COc1cc(NC(=O)Cc2ccc(C3=CCN(C#N)C(C)C3)nc2)ncc1Cl` (stereo not drawn) [Compound 65, N-(5-chloro-4-methoxypyridin-2-yl)-2-(1′-cyano-2′-methyl-1′,2′,3′,6′-tetrahydro-[2,4′-bipyridin]-5-yl)acetamide], the IC50 (read-out: IC50 μM (in range)) is less than 0.01 µM. For the setting “compound at 10 μM”, the inhibition at 10 µM is 87%.
The corresponding values for `CN1CC2(CC(Oc3cc(NC(=O)Cc4ccc(C5=CCCN(C#N)C5)nc4)ncc3Cl)C2)C1` [Compound 69, N-(5-chloro-4-((2-methyl-2-azaspiro[3.3]heptan-6-yl)oxy)pyridin-2-yl)-2-(1′-cyano-1′,2′,5′,6′-tetrahydro-[2,3′-bipyridin]-5-yl)acetamide] are less than 0.01 µM and 93%.
For the molecule `COc1cc(NC(=O)Cc2ccc(C3=CCN(C#N)CC3C)nc2)ncc1Cl` (stereo not drawn) [Compound 70, N-(5-chloro-4-methoxypyridin-2-yl)-2-(1′-cyano-3′-methyl-1′,2′,3′,6′-tetrahydro-[2,4′-bipyridin]-5-yl)acetamide], the IC50 (read-out: IC50 μM (in range)) is less than 0.01 µM. The inhibition at 10 µM (compound at 10 μM) turned out to be 94%.
As to `COc1cc(NC(=O)Cc2ccc(C3=CC4CCC(C3)N4C#N)nc2)ncc1Cl` (stereo not drawn) [Compound 73, N-(5-chloro-4-methoxypyridin-2-yl)-2-(6-(8-cyano-8-azabicyclo[3.2.1]oct-2-en-3-yl)pyridin-3-yl)acetamide], under “read-out: IC50 μM (in range)”, the IC50 was less than 0.01 µM. The inhibition at 10 µM (compound at 10 μM) turned out to be 87%.
The matching figures for `COc1cc(NC(=O)Cc2ccc(C3CC4CCC(C3)N4C#N)nc2)ncc1Cl` (stereo not drawn) [Compound 74, N-(5-chloro-4-methoxypyridin-2-yl)-2-(6-(8-cyano-8-azabicyclo[3.2.1]octan-3-yl)pyridin-3-yl)acetamide]: less than 0.01 µM and 100%.
The matching figures for `COc1cc(NC(=O)Cc2ccc(C3=CC4CN(C#N)CC4C3)nc2)ncc1Cl` (stereo not drawn) [Compound 75, N-(5-chloro-4-methoxypyridin-2-yl)-2-(6-(2-cyano-1,2,3,3a,4,6a-hexahydrocyclopenta[c]pyrrol-5-yl)pyridin-3-yl)acetamide]: less than 0.01 µM and 96%.
The corresponding values for `COc1cc(NC(=O)Cc2ccc(C3CC4CN(C#N)CC4C3)nc2)ncc1Cl` (stereo not drawn) [Compound 76, N-(5-chloro-4-methoxypyridin-2-yl)-2-(6-(2-cyanooctahydrocyclopenta[c]pyrrol-5-yl)pyridin-3-yl)acetamide] are less than 0.01 µM and 90%.
For the molecule `CN(C)C(=O)Oc1cc(NC(=O)Cc2ccc(C3=CCCN(C#N)C3)nc2)ncc1Cl` [Compound 77, 5-chloro-2-(2-(1′-cyano-1′,2′,5′,6′-tetrahydro-[2,3′-bipyridin]-5-yl)acetamido)pyridin-4-yl dimethylcarbamate], the inhibition at 10 µM came to 79%. The IC50 (IC50 μM (in range)) is less than 0.01 µM.
With `COc1cc(NC(=O)Cc2ccc(C3CCCN(C#N)C3)nc2)ncc1Cl` (stereo not drawn) [Compound 78, N-(5-chloro-4-methoxypyridin-2-yl)-2-(6-(1-cyanopiperidin-3-yl)pyridin-3-yl)acetamide], for the setting “read-out: IC50 μM (in range)”, the half-inhibitory concentration (IC50) was 0.01 to 0.1 µM. The inhibition at 10 µM (compound at 10 μM) was 87%.
On to `COc1cc(NC(=O)Cc2ccc(C3=CC4CCC3CN4C#N)nc2)ncc1Cl` (stereo not drawn) [Compound 81, N-(5-chloro-4-methoxypyridin-2-yl)-2-(6-(2-cyano-2-azabicyclo[2.2.2]oct-5-en-5-yl)pyridin-3-yl)acetamide], for which the IC50 (read-out: IC50 μM (in range)) was less than 0.01 µM. The inhibition at 10 µM (compound at 10 μM) was 87%.
For `CNC(=O)C(C)Oc1cc(NC(=O)Cc2ccc(C3CCN(C#N)CC3)nc2)ncc1Cl` (stereo not drawn) [Compound 82, 2-((5-chloro-2-(2-(6-(1-cyanopiperidin-4-yl)pyridin-3-yl)acetamido)pyridin-4-yl)oxy)-N-methylpropanamide], the IC50 (read-out: IC50 μM (in range)) was 0.01 to 0.1 µM. For the same molecule, the inhibition at 10 µM (compound at 10 μM) is 87%.
The matching figures for `CNC(=O)C(C)Oc1cc(NC(=O)Cc2ccc(C3CCCN(C#N)C3)nc2)ncc1Cl` (stereo not drawn) [Compound 85, 2-((5-chloro-2-(2-(6-(1-cyanopiperidin-3-yl)pyridin-3-yl)acetamido)pyridin-4-yl)oxy)-N-methylpropanamide]: 0.01 to 0.1 µM and 92%.
The corresponding values for `N#CN1CCCC(c2ccc(CC(=O)Nc3cc(O[C@@H]4CCOC4)c(Cl)cn3)cn2)C1` (stereo partly drawn) [Compound 92, N-(5-chloro-4-(((R)-tetrahydrofuran-3-yl)oxy)pyridin-2-yl)-2-(6-(1-cyanopiperidin-3-yl)pyridin-3-yl)acetamide] are 0.01 to 0.1 µM and 90%.
Regarding `N#CN1CCCC(c2ccc(CC(=O)Nc3cc(O[C@H]4CCOC4)c(Cl)cn3)cn2)C1` (stereo partly drawn) [Compound 95, N-(5-chloro-4-(((S)-tetrahydrofuran-3-yl)oxy)pyridin-2-yl)-2-(6-(1-cyanopiperidin-3-yl)pyridin-3-yl)acetamide], the IC50 (read-out: IC50 μM (in range)) is 0.01 to 0.1 µM. For the same molecule, the inhibition at 10 µM (compound at 10 μM) was determined as 90%.
In the case of `N#CN1CCC(c2ccc(CC(=O)Nc3cc(O[C@@H]4CCOC4)c(Cl)cn3)cn2)CC1` [Compound 98, (R)-N-(5-chloro-4-((tetrahydrofuran-3-yl)oxy)pyridin-2-yl)-2-(6-(1-cyanopiperidin-4-yl)pyridin-3-yl)acetamide], the IC50 (read-out: IC50 μM (in range)) lay within 0.01 to 0.1 µM. Also, the inhibition at 10 µM (compound at 10 μM) was 87%.
